The results in this text go back to US8614068B2, “Process for producing hepcidin” (Hellenic Pasteur Institute, priority 2007, dated 2013).

“Also recorded” adds a separate entry of the source.

The test system of one assay is TfR1. Kind of assay: Western blot of TfR1 expression in macrophages. It is filed as cell-based, murine. The procedure: (§1) A, RAW 264.7 macrophages were treated with 11 μM and 10 μM of synthetic hepcidin-25 (having the sequence of SEQ ID NO. 2) and Hep-25His (having the sequence of SEQ ID NO. 6) for 4 h at 37° C. or with PBS as negative control. Cell lysates were subjected to 8% SDS PAGE and Western Blot with antibodies against TfR1, Ferroportin and actin as loading control. B, The signal density of ferroportin, TfR1 and actin protein bands from two independent experiments were quantified by densitometry and their intensity relative to actin was calculated. […] Hep25-His, negative peptide and PBS was incubated with Raw 264.7 macrophages, followed by cross-linking with DSS. Cell lysates were incubated with Ni2-NTA and eluates were analyzed by Western blot using anti-FPN1 Ab. […] HEK293-Fpn cells were induced with ponasterone for 24 h and then treated with Hep25-His or synthetic hepcidin 25 (s. Hep25) for 3 h. Fluorescence was visualized with a Leica TCS confocal microscope.
Western blotting—1×10^6 cells (RAW 264.7, THP-1 or J774) were plated in […] plates and after 12-20 h cells were treated with hepcidins in serum-free DMEM for 4 h, at 37° C. Afterwards, cells were re-suspended in lysis buffer (1% Triton, 25 mM Hepes pH 7.4, 150 mM NaCl, 10% Glycerol, 5 mM EDTA, 0.5 mM PMSF, protein inhibitors (Roche, Mannheim, Germany) and quantified by Bradford assay (Biorad, Hercules, Calif.). 30 μg of cell lysate was analyzed on 8% SDS-PAGE. Proteins were transferred to Hybond C nitrocellulose membrane (Amersham Biosciences, Piscataway, N.J.) and the membranes were incubated with the primary antibodies rabbit anti-ferroportin (Alpha Diagnostics, San Antonio, Tex.), mouse anti-TfR1 (Zymed, Invitrogen, Carlsbad, Calif.) and mouse anti-β actin (Santa Cruz Biotech, Santa Cruz, Calif.), in a dilution of 1:1000, overnight at 4° C. […] Specific signal was detected with a chemiluminescence assay kit (ECL, Amersham Biosciences, Piscataway, N.J.). The bands were quantified by densitometry using the Quantity-One (Biorad, Hercules, Calif.) software. […]
(In general: Immunoblotting shows a protein as a band on a membrane.)

Assay [1] has as its target T1, ferroportin (FPN1) (Mus musculus, UniProt Q9JHI9).
T1 construct: endogenous in cells; host or cells: RAW 264.7 murine macrophages
T1 sequence (Q9JHI9 1-570): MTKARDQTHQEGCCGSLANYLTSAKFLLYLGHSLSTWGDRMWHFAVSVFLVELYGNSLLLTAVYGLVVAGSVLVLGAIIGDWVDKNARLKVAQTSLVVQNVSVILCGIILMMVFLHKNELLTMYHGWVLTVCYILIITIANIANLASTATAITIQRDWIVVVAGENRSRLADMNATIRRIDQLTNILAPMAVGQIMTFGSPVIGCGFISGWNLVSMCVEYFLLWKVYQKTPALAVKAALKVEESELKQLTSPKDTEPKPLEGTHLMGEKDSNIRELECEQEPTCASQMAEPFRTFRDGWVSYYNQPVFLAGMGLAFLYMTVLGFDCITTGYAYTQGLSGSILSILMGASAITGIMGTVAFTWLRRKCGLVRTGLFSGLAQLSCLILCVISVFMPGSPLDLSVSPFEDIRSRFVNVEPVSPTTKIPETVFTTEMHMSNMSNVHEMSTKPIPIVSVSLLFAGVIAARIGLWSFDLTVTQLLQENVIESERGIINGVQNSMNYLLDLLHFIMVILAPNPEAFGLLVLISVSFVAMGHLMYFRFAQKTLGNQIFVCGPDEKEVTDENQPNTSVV
Kind of assay: Western blot of ferroportin expression in macrophages. It is filed as cell-based, murine. The settings on record: RAW 264.7, 1 μM, 4 h at 37° C.

A further assay has as its target T2, FPN1-GFP (Mus musculus, UniProt Q9JHI9).
T2 construct: expressed in transfected cells
T2 sequence (Q9JHI9 1-570): T1 sequence (Q9JHI9 1-570)
Kind of assay: FPN1-GFP internalization by confocal microscopy in HEK293-Fpn cells. It is filed as cell-based. To be noted: HEK293-Fpn cells induced with ponasterone 24 h, treated 3 h. As for the experimental part:
A, RAW 264.7 macrophages were treated with 11 μM and 10 μM of synthetic hepcidin-25 (having the sequence of SEQ ID NO. 2) and Hep-25His (having the sequence of SEQ ID NO. 6) for 4 h at 37° C. or with PBS as negative control. Cell lysates were subjected to 8% SDS PAGE and Western Blot with antibodies against TfR1, Ferroportin and actin as loading control. B, The signal density of ferroportin, TfR1 and actin protein bands from two independent experiments were quantified by densitometry and their intensity relative to actin was calculated. Data are expressed as mean of ratios of TfR1 or to actin levels ±S.D. for each experimental condition. *p<0.01. […] Hep25-His, negative peptide and PBS was incubated with Raw 264.7 macrophages, followed by cross-linking with DSS. Cell lysates were incubated with Ni2-NTA and eluates were analyzed by Western blot using anti-FPN1 Ab. […] Fluorescence was visualized with a Leica TCS confocal microscope. […]
Furthermore, the internalization of FPN1 in the presence of Hep25-His (having the sequence of SEQ ID NO. 6) was analyzed in HEK293-Fpn cells by confocal microscopy; these cells express an FPN1-GFP fusion construct on the plasma membrane (Nemeth, E., Tuttle, M. S., Powelson, J., Vaughn, M. B., Donovan, A., Ward, D. M. Ganz, T., Kaplan, J. (2004) Science 306, 2090-3).

Assay [2] has as its target T1, ferroportin (FPN1). Put plainly: Western blot of ferroportin expression in macrophages. It is filed as cell-based, murine. The procedure:
as §1
Western blotting—1×10^6 cells (RAW 264.7, THP-1 or J774) were plated in […] plates and after 12-20 h cells were treated with hepcidins in serum-free DMEM for 4 h, at 37° C. Afterwards, cells were re-suspended in lysis buffer (1% Triton, 25 mM Hepes pH 7.4, 150 mM NaCl, 10% Glycerol, 5 mM EDTA, 0.5 mM PMSF, protein inhibitors (Roche, Mannheim, Germany) and quantified by Bradford assay (Biorad, Hercules, Calif.). 30 μg of cell lysate was analyzed on 8% SDS-PAGE. Proteins were transferred to Hybond C nitrocellulose membrane (Amersham Biosciences, Piscataway, N.J.) and the membranes were incubated with the primary antibodies rabbit anti-ferroportin (Alpha Diagnostics, San Antonio, Tex.), mouse anti-TfR1 (Zymed, Invitrogen, Carlsbad, Calif.) and mouse anti-β actin (Santa Cruz Biotech, Santa Cruz, Calif.), in a dilution of 1:1000, overnight at 4° C. After washing, the membranes were incubated with anti-rabbit and anti-mouse secondary antibodies conjugated with HRP, in a dilution of 1:5000 (DakoCytomation, Carpinteria, Calif.), for 1 h at room temperature. Specific signal was detected with a chemiluminescence assay kit (ECL, Amersham Biosciences, Piscataway, N.J.). The bands were quantified by densitometry using the Quantity-One (Biorad, Hercules, Calif.) software. Data are shown as means±SD. Statistical analysis was performed by student t-Test.

Where [3] appears, read: RAW 264.7, 10 μM, 4 h at 37° C.

Take hepcidin-25His [Hep-25His]: the “reduction of TfR1 in comparison to untreated cells” value in the assay with TfR1 (setting [3]) is reported as 48%±17.7. The “decrease in TfR1 expression” value with TfR1 (RAW 264.7 macrophages) is on record as about 50%. For the same substance, the “reduction of FPN1 in comparison to untreated cells” value was 37%±7 on ferroportin (FPN1) [1] and 48±3% on ferroportin (FPN1) [2] (setting [3]). The “internalization of FPN1-GFP” value on FPN1-GFP was “promoted the internalization of FPN1-GFP; also recorded: causes the internalization of FPN1-GFP”. For the same substance, at ferroportin (FPN1) [2] (RAW 264.7 macrophages), the “decrease in ferroportin levels” value is about 50%. For the same substance, the “effect of higher concentrations on FPN1 and TfR1” value at ferroportin (FPN1) [2] (concentrations higher than 10 μM, data not shown) is reported as “did not have a stronger effect”.
